According to patent publication US20260042747A1, “KIT INHIBITORS, COMPOUNDS, PHARMACEUTICAL COMPOSITIONS, AND METHODS OF USE THEREOF” (Alivexis, Inc., priority 2022, published 2026):
Structures can show the parent of a compound that is named as a salt. Where two headings read alike, the source gives them in different places.

Tests used:
[1] = biological target: recombinant human KIT tyrosine kinase protein (Homo sapiens (Human), UniProt P10721); experiment: KIT tyrosine kinase assay (ADP-Glo); assay type: biochemical
Description: An in vitro assay utilizing the recombinant human KIT tyrosine kinase protein was developed to measure compound inhibition of KIT. KIT tyrosine kinase activity was measured by the ADP-Glo Kinase Assay system with poly […]) peptide substrate. Kinase Assay was performed in white 384-well plates and the luminescence was measured by Victor X5 Multilabel Counter (Perkin Elmer). Recombinant intracellular domain of human KIT protein was purchased from Carna Biosciences (Kobe, Japan). Poly […]) peptide was purchased from Sigma-Aldrich (St. Louis, Missouri, USA). ADP-Glo Kinase Assay reagent was purchased from Promega (Madison, Wisconsin, USA). Each test compound was dissolved in 100% DMSO to prepare 10 mM stock solutions. […] After the preincubation, 3 μL of substrate/ATP mixture was added and incubated for 1 hour at room temperature. The tyrosine phosphorylation by KIT kinase was quantified by ADP-Glo kinase assay kit following the manufacturer's protocol. Briefly, the phosphorylation reaction was terminated by adding 10 μL ADP-Glo reagent and incubated for 60 minutes at room temperature. 20 μL of Kinase Detection Reagent was added to each well and luminescence was measured by plate reader. […] Half maximal inhibitory concentration (IC50) was calculated by a Four […] Logistic Regression model using GraphPad Prism (GraphPad Software). The value without recombinant KIT protein and without test compound was used as a negative control (assay background).

M-07e cells = experiment: SCF-dependent M-07e cell proliferation assay; assay type: cell-based, human; settings: read-out: M-07e IC50
Description: SCF-dependent cell proliferation assay was developed to measure the inhibitory potency of the compounds in M-07e cells, which express wild-type human KIT protein. The assay was performed in 96-well plates and the IC50 of each KIT inhibitor was determined by CellTiter Glo Assay reagent and Victor X5 Multilabel Counter (Perkin Elmer).
M-07e cells were purchased from AcceGen Biotechnology. Cells were maintained with M-07e Growth medium: RPMI-1640 containing 20% FBS, 100 U/mL penicillin and 100 microgram/mL streptomycin, 10 ng/mL rhGM-CSF, 10 ng/mL rhSCF. M-07e cells were seeded at a density of 5000 cells/90 μL/well in 96-well plates. Test compounds were dissolved in 100% DMSO to make 20 mM stock solution and serially diluted 1:3 with 100% DMSO to make an 11-point dilution series with concen-trations from […] to 0.024 μM. The serially diluted compounds were then each diluted 1:50 with culture medium to obtain assay compound solutions containing 2% DMSO. Ten μL of assay compound solutions were added to the 90 μL of culture cell suspension in the 96-well plate, with a final DMSO concentration of 0.2%. The plates were then incubated in a 5% CO2 incubator at 37° C. for 3 days. To obtain Day Zero Controls for background calculation, cells were seeded at 5000 cells/100 μL in a new 96-well plate and processed on the same day. Both Day Zero controls and 3 day culture plates were then treated as follows. 100 μL of CellTiter Glo Assay reagent was added to each well and the plate was incubated at room temperature for 15 min on a shaker at 200-300 RPM. Then 100 μL of cell lysate samples were transferred to white wall 96-well plates and luminescence was measured by a plate reader. The luminescence of Day Zero Control was subtracted from the luminescence intensity of 3 day culture readings. The assay control for this experiment was cells treated with 0.2% DMSO in culture medium and wells with 100 μL of culture medium (0.2% DMSO without cells) were used as the blank for data analysis.
The IC50 value of each compound was determined by using % inhibition by nor-malizing inhibition in DMSO treated control wells to 0% using the following formula method: […]
Plot percent inhibition in proliferation of triplicates against the respective concen-trations of compound and fit the dose response curve using the sigmoidal dose response equation to generate the IC50 in GraphPad Prism 8 software.

[2] = SCF-dependent M-07e cell proliferation, 3 days, CellTiter Glo
[3] = Homo sapiens, M-07e, 72 h, SCF-dependent M-07e cell proliferation, 3 days, CellTiter Glo

recombinant human KIT tyrosine kinase protein, sequence (P10721 546-976): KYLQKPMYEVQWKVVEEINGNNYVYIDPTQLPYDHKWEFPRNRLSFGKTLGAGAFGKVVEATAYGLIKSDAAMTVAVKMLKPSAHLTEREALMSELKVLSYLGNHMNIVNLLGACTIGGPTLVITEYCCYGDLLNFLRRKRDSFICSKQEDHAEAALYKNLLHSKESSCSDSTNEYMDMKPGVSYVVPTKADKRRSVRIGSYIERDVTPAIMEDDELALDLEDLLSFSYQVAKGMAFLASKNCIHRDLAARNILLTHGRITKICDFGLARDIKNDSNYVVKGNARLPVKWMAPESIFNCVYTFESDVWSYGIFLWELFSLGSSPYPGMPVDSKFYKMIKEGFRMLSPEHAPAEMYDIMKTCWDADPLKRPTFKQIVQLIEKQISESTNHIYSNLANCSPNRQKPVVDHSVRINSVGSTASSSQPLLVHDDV

IC50 ([1]; Table 99) [nM] | SMILES | IC50 (M-07e cells; [2]) [nM] | IC50 ([1]; Table 98) [nM] | IC50 (M-07e cells; [3]) [nM] | IC50 (M-07e cells; Homo sapiens, M-07e, 72 h) [nM]
18 | CN(c1ccc(CNC(=O)c2ccc3c(c2)[nH]c(=O)n3C)cn1)C1CC(OC(F)(F)F)C1 (single isomer, unassigned) [107 Isomer I, 1-Methyl-N-((6-(methyl(3-(trifluoromethoxy)cyclobutyl)amino)pyridin-3-yl)methyl)-2-oxo-2,3-dihydro-1H-benzimidazole-5-carboxamide] | 47 | – | – | –
– | Cn1c(=O)[nH]c2cc(C(=O)NCc3cnc4c(c3)CCN4c3ccccc3F)ccc21 [Compound 19, N-((1-(2-Fluorophenyl)-2,3-dihydro-1H-pyrrolo[2,3-b]pyridin-5-yl)methyl)-1-methyl-2-o xo-2,3-dihydro-1H-benzimidazole-5-carboxamide] | – | 60 | 160 | –
– | CN(c1ncc(CNC(=O)c2ccc3c(c2)[nH]c(=O)n3C)s1)C1CCC(F)(F)CC1 [Example 90] | – | 48 | – | 1800
– | CN(Cc1ccccn1)c1ccc(CNC(=O)c2ccc3c(c2)[nH]c(=O)n3C)cn1 [Example 76] | – | 86 | – | 1600
– | CC(C)N1CCc2cc(CNC(=O)c3ccc4c(c3)[nH]c(=O)n4C)cnc21 [Compound 17, N-((1-Isopropyl-2,3-dihydro-1H-pyrrolo[2,3-b]pyridin-5-yl)methyl)-1-methyl-2-oxo-2,3-dihydro-1H-benzimidazole-5-carboxamide] | – | 22 | 390 | –
– | CC(c1ccccc1)N(C)c1ccc(CNC(=O)c2ccc3c(c2)[nH]c(=O)n3C)cn1 (single isomer, unassigned) [82 Peak 2] | 620 | 29 | – | –
30 | CN(c1ccc(CNC(=O)c2cc3[nH]c(=O)[nH]c3cc2F)cn1)C1CCC(F)(F)CC1 [Example 135] | – | – | 589 | –
21 | CN(c1ccc(CNC(=O)c2ccc3c(c2)[nH]c(=O)n3C)cn1)[C@H]1CCC(F)(F)C1 [Example 105, (S)—N-((6-((3,3-Difluorocyclopentyl)(methyl)amino)pyridin-3-yl)methyl)-1-methyl-2-o xo-2,3-dihydro-1H-benzimidazole-5-carboxamide] | – | – | 13 | –
– | CN(c1ccc(CNC(=O)c2ccc3c(c2)[nH]c(=O)n3C)cn1)c1ccccc1F [Example 59] | – | 14 | – | 190
22 | CN(c1ccc(CNC(=O)c2ccc3c(c2)[nH]c(=O)n3C)cn1)C1CC2C(C1)C2(F)F (stereo not shown) [Example 108, N-((6-((6,6-Difluorobicyclo[3.1.0]hexan-3-yl)(methyl)amino)pyridin-3-yl)methyl)-1-met hyl-2-oxo-2,3-dihydro-1H-benzimidazole-5-carboxamide] | – | – | 65 | –
– | Cn1c(=O)[nH]c2cc(C(=O)NCc3cnc(N(C)[C@H]4C[C@@H](C(F)(F)F)C4)cn3)ccc21 [Example 95] | – | 24 | – | 190
75 | CN(c1ccc(CNC(=O)c2cc3[nH]c(=O)n(C)c3cc2F)cn1)C1CC(F)(F)C1 [Example 139] | – | – | 636 | –
57 | CN(c1ccc(CNC(=O)c2cc(F)c3[nH]c(=O)[nH]c3c2)cn1)C1CC(F)(F)C1 [Example 144] | – | – | 3560 | –
– | CC(c1ccccc1)N(C)c1ccc(CNC(=O)c2ccc3c(c2)[nH]c(=O)n3C)cn1 (stereo not shown) [Example 82] | – | 75 | 730 | –
– | CC(c1ccccc1)N(C)c1ccc(CNC(=O)c2ccc3c(c2)[nH]c(=O)n3C)cn1 (single isomer, unassigned) [82 Peak 1] | 6300 | 180 | – | –
– | CN(Cc1ccccc1)c1ccc(CNC(=O)c2ccc3c(c2)[nH]c(=O)n3C)cn1 [Example 66] | – | 33 | – | 79
25 | CN(c1ccc(CNC(=O)c2ccc3c(c2)[nH]c(=O)n3C)cn1)C1CC2(CC2)C1 [Example 109, 1-Methyl-N-((6-(methyl(spiro[2.3]hexan-5-yl)amino)pyridin-3-yl)methyl)-2-oxo-2,3-d ihydro-1H-benzimidazole-5-carboxamide formate] | – | – | 12 | –
– | CN(CC1CCOCC1)c1ccc(CNC(=O)c2ccc3c(c2)[nH]c(=O)n3C)cn1 [Example 72] | – | 84 | – | 800
79 | CC(NC(=O)c1ccc2c(c1)[nH]c(=O)n2C)c1ccc(N(C)C(C)C)nc1 (single isomer, unassigned) [130 Peak 1] | – | – | 621 | –
– | CN(Cc1ccccc1F)c1ccc(CNC(=O)c2ccc3c(c2)[nH]c(=O)n3C)cn1 [Example 74] | – | 25 | – | 110
– | CCC(C)N(C)c1ccc(CNC(=O)c2ccc3c(c2)[nH]c(=O)n3C)cn1 (stereo not shown) [Example 84] | – | 16 | – | 180
– | CN(c1ccc(CNC(=O)c2ccc3c(c2)[nH]c(=O)n3C)cn1)c1ccc(F)cc1F [Example 62] | – | 170 | – | 290
– | C[C@H]1CCCN1c1ccc(CNC(=O)c2ccc3c(c2)[nH]c(=O)n3C)cn1 [Compound 14, (S)-1-Methyl-N-((6-(2-methylpyrrolidin-1-yl)pyridin-3-yl)methyl)-2-oxo-2,3-dihydro-1H-benzimidazole-5-carboxamide] | – | 63 | 560 | –
– | Cn1c(=O)[nH]c2cc(C(=O)NCc3ccc(OC4CCOC(C)(C)C4)nc3)ccc21 (stereo not shown) [Example 48] | – | 550 | – | 8900
– | CN(c1ccc(F)cc1)c1ccc(CNC(=O)c2ccc3c(c2)[nH]c(=O)n3C)cn1 [Compound 9, N-((6-((4-Fluorophenyl)(methyl)amino)pyridin-3-yl)methyl)-1-methyl-2-oxo-2,3-dihydro-1H-benzimidazole-5-carboxamide trifluoroacetate] | – | 34 | 610 | –
– | CN(c1ccc(CNC(=O)c2ccc3c(c2)[nH]c(=O)n3C)cn1)C12CC(C)(C1)C2 [Example 78] | – | 26 | – | 150
23 | CN(c1ccc(CNC(=O)c2cc3[nH]c(=O)[nH]c3cc2F)cn1)[C@H]1C[C@@H](C(F)(F)F)C1 [Example 137] | – | – | 36 | –
– | Cn1c(=O)[nH]c2cc(C(=O)NCc3cnc4c(ccn4-c4ccccc4F)c3)ccc21 [Example 100] | – | 53 | – | 250

SMILES | IC50 ([1]; Table 99) [nM] | IC50 (M-07e cells; [2]) [nM] | IC50 ([1]; Table 98) [nM] | IC50 (M-07e cells; [3]) [nM] | IC50 (M-07e cells; Homo sapiens, M-07e, 72 h) [nM]
COc1cc(C(=O)NCc2ccc(N(C)[C@H]3C[C@@H](C(F)(F)F)C3)nc2)cc2[nH]c(=O)[nH]c12 [Example 145] | 15 | – | – | – | 515
Cn1c(=O)[nH]c2cc(C(=O)NCc3ccc(OC4CC(C(F)(F)F)C4)nc3)ccc21 (stereo not shown) [Compound 103, 1-Methyl-2-oxo-N-((6-(3-(trifluoromethyl)cyclobutoxy)pyridin-3-yl)methyl)-2,3-dihyd ro-1H-benzimidazole-5-carboxamide] | 42 | – | – | 819 | –
Cn1c(=O)[nH]c2cc(C(=O)NCc3cnc4c(c3)CCN4c3c(F)cccc3F)ccc21 [Example 102] | 55 | – | – | – | 270
CN(c1ccc(CNC(=O)c2ccc3c(c2)[nH]c(=O)n3C)cn1)C1[C@H]2CC(F)(F)C[C@@H]12 (stereo partly shown) [Example 126] | 33 | – | – | – | 806
CN(c1ccc(CNC(=O)c2ccc3c(c2)[nH]c(=O)n3C)cn1)[C@H]1C[C@@H]1C(F)(F)F [Example 127] | 47 | – | – | – | 1320
CN(c1cnc(CNC(=O)c2cc3[nH]c(=O)[nH]c3cc2F)cn1)C1CCC(F)(F)C1 (stereo not shown) [Example 138] | 35 | – | – | – | 4570
CN(c1ccc(CNC(=O)c2ccc3c(c2)[nH]c(=O)n3C)cn1)[C@@H]1CC[C@H](F)C1 [Example 134] | 38 | – | – | – | 62
